{"source": "the OPERA property sets (Mansouri et al. 2018)", "data": [{"smiles": "CN(C)C(=O)c1cnccn1", "values": [{"measurement": "logP", "result": -0.8}]}, {"smiles": "CCOC(=O)c1cnccn1", "values": [{"measurement": "logP", "result": 0.28}]}, {"smiles": "CSc1ccccn1", "values": [{"measurement": "logP", "result": 1.71}]}, {"smiles": "CNc1cnccn1", "values": [{"measurement": "logP", "result": 0.56}]}, {"smiles": "N#Cc1cnccn1", "values": [{"measurement": "logP", "result": -0.01}]}, {"smiles": "COC(=O)c1cnccn1", "values": [{"measurement": "logP", "result": -0.23}]}, {"smiles": "CCc1cnccn1", "values": [{"measurement": "logP", "result": 0.69}]}, {"smiles": "CN(C)c1cnccn1", "values": [{"measurement": "logP", "result": 0.93}]}, {"smiles": "Fc1ccccn1", "values": [{"measurement": "logP", "result": 0.84}]}, {"smiles": "CCOc1cnccn1", "values": [{"measurement": "logP", "result": 1.28}]}, {"smiles": "Clc1cnccn1", "values": [{"measurement": "logP", "result": 0.7}]}, {"smiles": "COc1ccccn1", "values": [{"measurement": "logP", "result": 1.34}]}, {"smiles": "CSc1cnccn1", "values": [{"measurement": "logP", "result": 1.17}]}, {"smiles": "CC(=O)Nc1cnccn1", "values": [{"measurement": "logP", "result": -0.03}]}, {"smiles": "CCCOc1cnccn1", "values": [{"measurement": "logP", "result": 1.84}]}, {"smiles": "CN(C)C(=O)c1ccccn1", "values": [{"measurement": "logP", "result": -0.45}]}, {"smiles": "Fc1cnccn1", "values": [{"measurement": "logP", "result": 0.29}]}, {"smiles": "CNc1ccccn1", "values": [{"measurement": "logP", "result": 1.12}]}, {"smiles": "COc1cnccn1", "values": [{"measurement": "logP", "result": 0.73}]}, {"smiles": "CN(C)c1ccccn1", "values": [{"measurement": "logP", "result": 1.65}]}, {"smiles": "CCOc1ccccn1", "values": [{"measurement": "logP", "result": 1.81}]}, {"smiles": "CC(=O)c1cnccn1", "values": [{"measurement": "logP", "result": 0.2}]}, {"smiles": "CCCOc1ccccn1", "values": [{"measurement": "logP", "result": 2.38}]}]}
